Measurements reported in US20230242956A1, “POLYPHOSPHATE KINASE MUTANT, ENGINEERED STRAIN AND APPLICATION THEREOF” (ZHEJIANG UNIVERSITY OF TECHNOLOGY, priority 2022, published 2023).

Target: T1, Cytophaga hutchinsonii polyphosphate kinase (ChPPK) mutant A79G/S106C/I108F/L285P (parent SEQ ID NO: 2) (Cytophaga hutchinsonii, UniProt A0A6N4SMB5, A79G/I108F/L285P/S106C)
T1 sequence (A0A6N4SMB5 with tags, fused parts or gaps A79G/S106C/I108F/L285P): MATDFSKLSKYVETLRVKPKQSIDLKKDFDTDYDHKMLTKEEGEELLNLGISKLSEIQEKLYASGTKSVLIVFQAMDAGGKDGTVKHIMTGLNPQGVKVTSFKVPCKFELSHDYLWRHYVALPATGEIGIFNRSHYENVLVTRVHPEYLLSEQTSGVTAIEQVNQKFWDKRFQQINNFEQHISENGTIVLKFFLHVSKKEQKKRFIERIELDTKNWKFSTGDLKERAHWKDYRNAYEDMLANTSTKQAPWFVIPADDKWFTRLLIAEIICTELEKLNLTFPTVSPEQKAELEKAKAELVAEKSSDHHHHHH
Experiment: Kinetic parameters of mutant ChPPK/A79G/S106C/I108F/L285P (pure enzyme, pseudo-one-substrate kinetic model, ATP by HPLC)
Format: biochemical
Conditions: mutant versus wild-type; substrate AMP or PPA
Procedure: (2) Pure enzyme: 5 mL of the crude enzyme solution was diluted with 40 mL of potassium phosphate buffer (20 mM, pH 7.2), and then applied to a HisTrap HP purification column of GE Healthcare (10 mL column, pre-washed with a pH 7.2, 20 mM potassium phosphate buffer containing 500 mM NaCl). The resulting purification column was eluted with 100 mL of washing buffer (a pH7.2, 20 mM potassium phosphate buffer containing 500 mM sodium chloride and 50 mM imidazole) at a rate of 0.5 mL/min to remove the absorbed protein impurities, and then eluted with an elution buffer (a pH7.2, 20 mM potassium phosphate buffer containing 500 mM sodium chloride and 50 mM imidazole) at a speed of 0.5 mL/min to collect an elution solution containing the target protein. Then the elution solution containing the target protein was dialyzed in a dialysis bag (the MWCO of the dialysis bag was 14 KDa) with a pH7.2 of 20 mM potassium phosphate buffer for 48h, and the retentate was taken as pure enzyme. The concentration of the pure enzyme was determined by Beyotime BCA Protein Assay Kit(P0012), and the amount of the pure enzyme used in the following examples was calculated by protein content.
0.4 mg of the crude enzyme solution prepared by the method in Example 2 or 0.05 mg of the pure enzyme, polyphosphoric acid (PPA) at a final concentration of 1.6 g/L, adenosine phosphate (AMP) at a final concentration of 2.25 mM, and MgCl2 at a final concentration of 10 mM were added to 10 mL of 50 mM potassium phosphate buffer (pH 7.5). The reaction solution was incubated at 37° C. for 5 min, and then 10 mL of 0.2 M phosphoric acid solution was added to terminate the reaction. The ATP content in the solution was determined by HPLC method. […]
The wild-type Ecoli.BL21(DE3)-ChPPK constructed by the method of Example 1 and the engineered strain Ecoli.BL21(DE3)-ChPPK/A79G/S106C/I108F/L285P constructed by the method of Example 6 were used to prepare pure enzymes by the method of Example 2. Km and Kcat were calculated by pseudo-one-substrate kinetic model. […]

## Nc1ncnc2c1ncn2[C@@H]1O[C@H](COP(=O)(O)O)[C@@H](O)[C@H]1O [AMP, adenosine phosphate]
  Km, wild-type compared with mutant (in words): similar
  catalytic efficiency (kcat/Km) of the mutant, fold higher than wild-type ChPPK: 16 fold
  turnover number (kcat value), mutant compared with wild-type (in words): increased
